Tests used:
Alternaria alternata [1] = assay: combination treatment with 1-MCP on tomato; assay type: in vivo; settings: tomatoes; 1-MCP 1000 ppb v/v alone
Protocol: Each tomato fruit is wounded three times and inoculated with 1×10^6 spores/mL of Alternaria alternata and then placed in a 117 L Rubbermaid storage box (Cat #2244) with two small fans placed in opposite ends of the container. A 1000 ppb v/v 1-MCP treatment is applied (AgroFresh, Springhouse, Pa.) for 24 hours at 21° C. After completion of the 1-MCP treatment, the tomatoes are removed and placed in a 10.8-cup […] airtight container (Model #109842). […] The tomatoes are incubated for three days at 21° C., then evaluated for an additional three days at 21° C. for disease incidence and severity. Results listed in Table 29 show good activity against Alternaria alternata infection of tomato.

Botrytis cinerea [2] = assay: combination treatment with 1-MCP on white roses; assay type: in vivo; settings: 1-MCP 500 ppb v/v for 24 hours, no Compound A
Protocol: To evaluate a combination treatment of Compound A with 1-methylcyclopropene (1-MCP), an in vivo experiment is performed on white roses.
Five white roses are placed in an 800 mL jar containing 200 mL of a common commercial flower preservative. Three jars are then placed in a 117 L Rubbermaid storage box (Cat #2244). Two small fans are placed in opposite ends of the container to assist with the distribution of the two volatiles. A 500 parts per billion (ppb) volume per volume (v/v) 1-MCP treatment is applied (AgroFresh, Springhouse, Pa.) for 24 hours at 21° C. After the 1-MCP treatment is completed, the containers are vented, and Compound A powder is applied in a dose dependent manner to achieve a final headspace concentration of 0.2, 0.04, or 0.008 mg/L with a sublimation device (copper tube heated to 200° C. with fan flow at 0.5 L/min), with the end of the tube penetrating through a ½ inch side port in the container that is sealed immediately after the application. The flowers are incubated for three days at 21° C. After treatment, the flowers are evaluated for an additional seven days at 21° C. for disease incidence and severity of the flower petals.

Alternaria alternata [3] = assay: combination treatment with 1-MCP on broccoli; assay type: in vivo; parameters: scale not given here; settings: 1-MCP alone, 21° C.
Protocol: To evaluate a combination treatment of Compound A with 1-methylcyclopropene (1-MCP), an in vivo experiment is performed on broccoli.
Broccoli flowers are inoculated with 1×10^6 spores/mL of Alternaria alternata and then placed in a 117 L Rubbermaid storage box (Cat #2244) with two small fans placed in opposite ends of the container. A 500 ppb v/v 1-MCP treatment is applied (AgroFresh, Springhouse, Pa.) for 24 hours at 1° C. After completion of the 1-MCP treatment, broccoli florets are removed and placed in a 10.8-cup SnapWare airtight container (Model #109842). Compound A powder is applied in a dose dependent manner to achieve a final headspace concentration of 2 or 0.4 mg/L with a sublimation device (copper tube heated to 200° C. with fan flow at 0.5 L/min), with the end of the tube penetrating through a ½ inch side port in the container that is sealed immediately after the application. The florets are incubated for five days at 10° C. or three days at 21° C., then evaluated for an additional five days at 21° C. for disease incidence and severity.

Alternaria alternata [4] = assay: combination treatment with 1-MCP on broccoli; assay type: in vivo; parameters: scale not given here; settings: 1-MCP alone, 11 C.
Botrytis cinerea [5] = assay: in vivo volatile bioassay using strawberry
Protocol: In order to assess the in vivo activity of volatile antimicrobial compounds, a volatile bioassay is developed using strawberry. Two fruit are placed inside a 240 mL jar, with the calyx facing downwards. […] The acetone is permitted to evaporate for 5 minutes. The jars are then capped with the lids containing the fungicide, and placed for 5 days at 21° C. After storage, fruit are evaluated for incidence and severity of disease and appearance of phytotoxicity.

Botrytis cinerea [6] = assay: in vitro inhibition assay for volatile antimicrobial compounds (12-well PDA plates); assay type: cell-based; settings: in vitro; volatile; 14 days at 4° C.
Protocol: 12-Well (7 milliliter (mL volume per well) microtiter plates are used for the in vitro inhibition assay for volatile antimicrobial compounds. A 3-mL volume of full-strength Potato Dextrose Agar (PDA) is added to each well. After cooling, 1 microliter (μL) of 1×10^6 per mL Botrytis cinerea spore suspension is spot pipetted to the center of the agar. For the first experiment, inoculated plates are allowed to germinate for 5 days at 4° C. For the second experiment, plates are inoculated immediately prior to volatile fungicide treatment. Small Whatman #1 filter disks (Cat. No. 1001-0155) are placed, in duplicate, on the underside of a polyethylene PCR plate sealing film.
The acetone is permitted to evaporate for 5 minutes. The headspace around the Botrytis cinerea inoculum is then sealed inside the well by the film with the adhering disk containing the fungicide. Plates are inverted, placed over the treated disks and sealed to prevent any of the chemical from flaking from the disk and falling onto the inoculated agar. After 14 days of storage at 4° C., cultures are evaluated for percent growth relative to control. Regardless of whether the spores had germinated for 5 days, or if the treatment commenced soon after inoculation of the plates (˜15 minutes); there is 100% control of the fungal pathogen down to 0.005 mg.
A total of 14 antimicrobial compounds are tested using the in vitro inhibition assay described in Example 1. All 14 compounds are applied to the Whatman disks, in duplicate, in a dose dependent manner (0.31 to 0.0006 mg/disk). […] Other compounds, such as Compound C, Compound D, and Compound E conferred 100% control down to 0.023, 0.04, and 0.08 mg/disk, respectively. Results of nine compounds are summarized in Table 2, where the other five compounds show no detected activity in the ranges tested. […]

Penicillium digitatum [7] = assay: in vivo volatile bioassay using orange (Compound B, sublimation); settings: for Sporulation (mm) / Water soaked lesions (mm): oranges
Protocol: Two oranges per replicate are placed inside a clamshell. Three fresh wounds per orange are inoculated with 30 μL of 1×10^6 per mL Penicillium digitatum spore suspension. The clamshells are placed inside a 10.8-cup SnapWare airtight container (Model #109842). […] After storage, fruits are evaluated for disease incidence (mm diameter of the rot) and pathogen sporulation (mm diameter) on the surface of the fruits for an additional three days at 21° C., with results summarized in Table 20.

Botrytis cinerea [8] = assay: in vivo sublimation bioassay on fruit, 1 mg/L (Example 31); settings: for Incidence (%) / Severity (0-4): 1 mg/L sublimed, three day treatment plus three days at 21° C.
Protocol: (§1) To assess the in vivo activity of volatile antimicrobial Compounds A and B (FIG. 1) in fruit, a volatile bioassay is developed using apple, pear, orange, strawberry, grape and blueberry.
(§2) Two apples, 2 oranges, 2 pears, 8 strawberries, 16 grapes or 30 blueberries (per replicate, in duplicate) are placed in a clamshell with the stem end facing up for all fruits except for strawberry (stem end facing downwards). A fresh wound is inoculated with 20 μL 1×10^6 per mL Penicillium expansum spore suspension (apple and pear), 20 μL 1×10^6 per mL Penicillium digitatum spore suspension (orange), and 20 μL (strawberry and grape) or 10 μL (blueberry) of 1×10^6 per mL Botrytis cinerea spore suspension. The clamshells are placed inside a 117 L Rubbermaid storage box (Cat #2244) with lids closed. […] After treatment, fruits are held for an additional three days at 21° C., then evaluated for disease incidence (mm diameter of browning or water-soaked lesions) and pathogen sporulation (mm diameter) for apple, pear and orange, as well as Botrytis cinerea disease incidence (%) and severity (0 to 4) for strawberry, grape and blueberry, with results summarized in Table 30.

Penicillium expansum = assay: as above; settings: 1 mg/L sublimed, three day treatment plus three days at 21° C.
Protocol: as §1, §2

Penicillium digitatum [9] = assay: as above
Protocol: as §1, §2

[10] = Orange, 1 mg/L sublimed, three day treatment plus three days at 21° C.

CC1=CC1 [Compound 1-MCP, 1-methylcyclopropene, reference compound]
Diameter of the rot (mm) (Alternaria alternata [1]): 13.6 mm
Incidence (%) (Botrytis cinerea [2]): 33.3%
Severity (0-4) (Botrytis cinerea [2]): 0.4
Color Score (Alternaria alternata [3]): 1.79
Severity (Alternaria alternata [3]): 0.61
Color Score (Alternaria alternata [4]): 1.50
Severity (Alternaria alternata [4]): 0.18

OB1OCc2ccccc21 [Compound B, 2-(hydroxymethyl)phenylboronic acid cyclic monoester]
Percent (%) Incidence of Botrytis cinerea on Strawberry (in vivo) (Botrytis cinerea [5]; 0.005 mg/disk, 5 days at 21° C.): 100%
Percent (%) Incidence of Botrytis cinerea on Strawberry (in vivo) (Botrytis cinerea [5]; 0.01 mg/disk, 5 days at 21° C.): 100%
Percent (%) Incidence of Botrytis cinerea on Strawberry (in vivo) (Botrytis cinerea [5]; 0.02 mg/disk, 5 days at 21° C.): 100%
Percent (%) Incidence of Botrytis cinerea on Strawberry (in vivo) (Botrytis cinerea [5]; 0.04 mg/disk, 5 days at 21° C.): 75%
Percent (%) Incidence of Botrytis cinerea on Strawberry (in vivo) (Botrytis cinerea [5]; 0.08 mg/disk, 5 days at 21° C.): 50%
Percent (%) Incidence of Botrytis cinerea on Strawberry (in vivo) (Botrytis cinerea [5]; 0.16 mg/disk, 5 days at 21° C.): 25%
Percent (%) Incidence of Botrytis cinerea on Strawberry (in vivo) (Botrytis cinerea [5]; 0.32 mg/disk, 5 days at 21° C.): 0%
Percent (%) Incidence of Botrytis cinerea on Strawberry (in vivo) (Botrytis cinerea [5]; 0.64 mg/disk, 5 days at 21° C.): 0%
Percent (%) Incidence of Botrytis cinerea on Strawberry (in vivo) (Botrytis cinerea [5]; 1.25 mg/disk, 5 days at 21° C.): 0%
Percent (%) Incidence of Botrytis cinerea on Strawberry (in vivo) (Botrytis cinerea [5]; 2.5 mg/disk, 5 days at 21° C.): 0%
lowest rate with 100% control of Botrytis cinerea (Botrytis cinerea [5]; strawberry, 5 days at 21° C.): 0.32 mg/disk
appearance of phytotoxicity (Botrytis cinerea [5]; strawberry, any of the rates evaluated (2.5 to 0.005 mg/disk)): no evidence of phytotoxicity
lowest rate with 100% control of Botrytis cinerea (Botrytis cinerea [6]): 0.0078 mg/disk
in vivo volatile inhibition of P. digitatum in orange (Penicillium digitatum [7]; 10 mg/L): complete inhibition
Sporulation (mm) (Penicillium digitatum [7]; 0.4 mg/L, Day 0): 0.7 mm
Water soaked lesions (mm) (Penicillium digitatum [7]; 0.4 mg/L, Day 0): 5.7 mm
Sporulation (mm) (Penicillium digitatum [7]; 0.4 mg/L, Day 1): 1.4 mm
Water soaked lesions (mm) (Penicillium digitatum [7]; 0.4 mg/L, Day 1): 29.4 mm
Sporulation (mm) (Penicillium digitatum [7]; 0.4 mg/L, Day 2): 8.1 mm
Water soaked lesions (mm) (Penicillium digitatum [7]; 0.4 mg/L, Day 2): 49.3 mm
Sporulation (mm) (Penicillium digitatum [7]; 0.4 mg/L, Day 3): 27.2 mm
Water soaked lesions (mm) (Penicillium digitatum [7]; 0.4 mg/L, Day 3): 63.4 mm
Sporulation (mm) (Penicillium digitatum [7]; 2 mg/L, Day 0): 0 mm
Water soaked lesions (mm) (Penicillium digitatum [7]; 2 mg/L, Day 0): 0.5 mm
Sporulation (mm) (Penicillium digitatum [7]; 2 mg/L, Day 1): 0.3 mm
Water soaked lesions (mm) (Penicillium digitatum [7]; 2 mg/L, Day 1): 7.8 mm
Sporulation (mm) (Penicillium digitatum [7]; 2 mg/L, Day 2): 2.8 mm
Water soaked lesions (mm) (Penicillium digitatum [7]; 2 mg/L, Day 2): 30.7 mm
Sporulation (mm) (Penicillium digitatum [7]; 2 mg/L, Day 3): 5.7 mm
Water soaked lesions (mm) (Penicillium digitatum [7]; 2 mg/L, Day 3): 42.6 mm
Sporulation (mm) (Penicillium digitatum [7]; 10 mg/L, Day 0): 0 mm
Water soaked lesions (mm) (Penicillium digitatum [7]; 10 mg/L, Day 0): 0 mm
Sporulation (mm) (Penicillium digitatum [7]; 10 mg/L, Day 1): 0 mm
Water soaked lesions (mm) (Penicillium digitatum [7]; 10 mg/L, Day 1): 0 mm
Sporulation (mm) (Penicillium digitatum [7]; 10 mg/L, Day 2): 0 mm
Water soaked lesions (mm) (Penicillium digitatum [7]; 10 mg/L, Day 2): 0 mm
Sporulation (mm) (Penicillium digitatum [7]; 10 mg/L, Day 3): 0 mm
Water soaked lesions (mm) (Penicillium digitatum [7]; 10 mg/L, Day 3): 0.8 mm
Sporulation (mm) (Penicillium digitatum [7]; 50 mg/L, Day 0): 0 mm
Water soaked lesions (mm) (Penicillium digitatum [7]; 50 mg/L, Day 0): 0 mm
Sporulation (mm) (Penicillium digitatum [7]; 50 mg/L, Day 1): 0 mm
Water soaked lesions (mm) (Penicillium digitatum [7]; 50 mg/L, Day 1): 0 mm
Sporulation (mm) (Penicillium digitatum [7]; 50 mg/L, Day 2): 0 mm
Water soaked lesions (mm) (Penicillium digitatum [7]; 50 mg/L, Day 2): 0 mm
Sporulation (mm) (Penicillium digitatum [7]; 50 mg/L, Day 3): 0 mm
Water soaked lesions (mm) (Penicillium digitatum [7]; 50 mg/L, Day 3): 0 mm
in vivo antimicrobial control of B. cinerea (Botrytis cinerea [8]; 1 mg/L, volatile fungicide on different hosts): 100%
Incidence (%) (Botrytis cinerea [8]; Blueberry): 0.0%
Severity (0-4) (Botrytis cinerea [8]; Blueberry): 0.0
Incidence (%) (Botrytis cinerea [8]; Grape): 0.0%
Severity (0-4) (Botrytis cinerea [8]; Grape): 0.0
Incidence (%) (Botrytis cinerea [8]; Strawberry): 0.0%
Severity (0-4) (Botrytis cinerea [8]; Strawberry): 0.0
Browning (mm) (Penicillium expansum; Apple): 2.3 mm
Sporulation (mm) (Penicillium expansum; Apple): 0.2 mm
Browning (mm) (Penicillium expansum; Pear): 1.1 mm
Sporulation (mm) (Penicillium expansum; Pear): 0.0 mm
in vivo antimicrobial control of P. digitatum (Penicillium digitatum [9]; 1 mg/L, volatile fungicide): 100%
Sporulation (mm) (Penicillium digitatum [9]; [10]): 0.0 mm
Water soaked lesion (Penicillium digitatum [9]; [10]): 0.0 mm

From US9426996B2, “Use of benzoxaboroles as volatile antimicrobial agents on meats, plants, or plant parts” (AgroFresh Inc., priority 2013, dated 2016)
